Where a name gives a salt, the structure may show the parent alone.
Legend:
Aβ1-42 = test: Measurement of Aβ1-42 in culture medium of 7W WT APP751 CHO cells by ELISA; assay type: cell-based, Chinese hamster; conditions: for Aβ1-42 (% of control): CHO cells that overexpress APP751, zero = below the detection limit of the assay; for activity at 5 µM: Cricetulus griseus, Table 1, 5 μM test compound, CHO cells stably transfected with human APP751, culture medium, ELISA, control DMSO, 0 = no detectable amount, read-out: Aβ1-42 (% of control)
Aβ1-40 = test: Measurement of Aβ1-40 in culture medium of 7W WT APP751 CHO cells by ELISA; assay type: cell-based, Chinese hamster; conditions: for Aβ1-40 (% of control): CHO cells that overexpress APP751, zero = below the detection limit of the assay; for activity at 5 µM: Cricetulus griseus, Table 1, 5 μM test compound, CHO cells stably transfected with human APP751, culture medium, ELISA, control DMSO, 0 = no detectable amount
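Note: 5 µM test compound but RI-coded compounds at 10 µM for 24 hours.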

| Structure (SMILES) | Aβ1-42 (% of control) (Aβ1-42) | Aβ1-40 (% of control) (Aβ1-40) | activity at 5 µM (Aβ1-42) [%] | activity at 5 µM (Aβ1-40) [%] |
| --- | --- | --- | --- | --- |
| COC(=O)C1=CN(C2CC2)C=C(C(=O)OC)C1c1ccc(Cl)cc1 [ST038738, methyl 4-(4-chlorophenyl)-1-cyclopropyl-5-(methoxycarbonyl)-1,4-dihydropyridine-3-carboxylate] | 52.59 % of control | 94.49 % of control | – | – |
| COC(=O)C1=C(C)NC2=C(C(=O)CC(C)(C)C2)C1c1ccc(-c2ccccc2)cc1 (stereo not shown) [ST216875, methyl 2,7,7-trimethyl-5-oxo-4-(4-phenylphenyl)-1,4,6,7,8-pentahydroquinoline-3-carboxylate] | – | – | 33 | 14.2 |
| CCc1cccc(NC(=O)CSC2=C(C#N)C(c3ccc(-c4ccco4)s3)C(C(=O)Nc3ccccc3)=C(C)N2)c1 (stereo not shown) [RI_85] | 46.7 % of control | 98.5 % of control | – | – |
| CC1=C(C(=O)Nc2ccccc2)C(c2ccncc2)C(C#N)=C(S)N1 (stereo not shown) [ST007526, (5-cyano-2-methyl-4-(4-pyridyl)-6-sulfanyl(3-1,4-dihydropyridyl))-N-benzamide, 4-methylmorpholine salt] | 81.23 % of control | 72.5 % of control | – | – |
| CC1=C(C(=O)Nc2ccccc2)C(c2cccs2)C(C#N)=C(SCC(=O)NC2CCCCC2)N1 (stereo not shown) [RI_25] | 36.5 % of control | 55.9 % of control | – | – |
| CC1=C(C(=O)OC(C)C)C(c2cccc(O)c2)C2=C(CCCC2=O)N1 (stereo not shown) [ST013174, methylethyl 4-(3-hydroxyphenyl)-2-methyl-5-oxo-1,4,6,7,8-pentahydroquinoline-3-carboxylate] | – | – | 73.1 | 34.3 |
| CCOC(=O)C1=CN(c2ccc(C)cc2)C=C(C(=O)OCC)C1c1ccccc1OCC [ST052284, ethyl 5-(ethoxycarbonyl)-4-(2-ethoxyphenyl)-1-(4-methylphenyl)-1,4-dihydropyridine-3-carboxylate] | 55.61 % of control | 57.71 % of control | – | – |
| CC1=C(C(=O)Nc2ccccc2)C(c2cccs2)C(C#N)=C(SCC(=O)Nc2cc(C)cc(C)c2)N1 (stereo not shown) [RI_11] | 35.8 % of control | 52.1 % of control | – | – |
| COC(=O)C1=CN(Cc2ccc(OC)c(OC)c2)C=C(C(=O)OC)C1c1cccs1 [ST038115, methyl 1-[(3,4-dimethoxyphenyl)methyl]-5-(methoxycarbonyl)-4-(2-thienyl)-1,4-d ihydropyridine-3-carboxylate] | 91 % of control | 42.45 % of control | – | – |
| CCOC(=O)C1=C(C)N(c2nonc2NC(C)=O)C(N)=C(C#N)C1c1ccc(Cl)cc1Cl (stereo not shown) [ST026470, ethyl 1-[4-(acetylamino)(1,2,5-oxadiazol-3-yl)]-6-amino-4-(2,4-dichlorophenyl)-5-cyano-2-methyl-1,4-dihydropyridine-3-carboxylate] | 67.48 % of control | 81.7 % of control | – | – |
| CCOC(=O)C1=C(C)N(C)C(C)=C(C(=O)OCC)C1c1ccccn1 [ST052366, ethyl 5-(ethoxycarbonyl)-1,2,6-trimethyl-4-(2-pyridyl)-1,4-dihydropyridine-3-carboxylate] | 89.76 % of control | 56.21 % of control | – | – |
| COc1cccc(C2C(C(=O)OC(C)C)=C(C)NC3=C2C(=O)CC(c2ccc(Cl)cc2)C3)c1OC (stereo not shown) [ST017324, methylethyl 4-(2,3-dimethoxyphenyl)-7-(4-chlorophenyl)-2-methyl-5-oxo-1,4,6,7,8-pentahydroquinoline-3-carboxylate] | – | – | 99.2 | 30.2 |
| COc1ccc(C2C(C(=O)OC(C)C)=C(C)NC3=C2C(=O)CC(c2ccccc2)C3)c(OC)c1 (stereo not shown) [ST017229, methylethyl 4-(2,4-dimethoxyphenyl)-2-methyl-5-oxo-7-phenyl-1,4,6,7,8-pentahydroquinoline-3-carboxylate] | – | – | 98.7 | 63.1 |
| CCOC(=O)C1=CN(c2cc(C)ccc2C)C=C(C(=O)OCC)C1c1ccc(OC)c(OC)c1OC [ST052487, ethyl 1-(2,5-dimethylphenyl)-5-(ethoxycarbonyl)-4-(2,3,4-trimethoxyphenyl)-1,4-dihydropyridine-3-carboxylate] | 15.1 % of control | 11.56 % of control | – | – |
| COC(=O)C1=CN(Cc2ccc(F)cc2)C=C(C(=O)OC)C1c1ccc(Cl)cc1 [ST024836, methyl 4-(4-chlorophenyl)-1-[(4-fluorophenyl)methyl]-5-(methoxycarbonyl)-1,4-dihydropyridine-3-carboxylate] | 82.55 % of control | 26.41 % of control | – | – |
| CC1(C)CC(=O)C2=C(C1)N(Cc1ccccc1)C(N)=C(C#N)C2c1ccc(Cl)cc1 (stereo not shown) [ST047623, 2-amino-4-(4-chlorophenyl)-7,7-dimethyl-5-oxo-1-benzyl-1,4,6,7,8-pentahydroquinoline-3-carbonitrile] | – | – | 44.4 | 95.4 |

| Structure (SMILES) | Aβ1-42 (% of control) (Aβ1-42) | Aβ1-40 (% of control) (Aβ1-40) | activity at 5 µM (Aβ1-42) [%] | activity at 5 µM (Aβ1-40) [%] |
| --- | --- | --- | --- | --- |
| COc1cc(OC)c(C2C(C(=O)OC3CCCC3)=C(C)NC3=C2C(=O)CC(c2cccs2)C3)cc1OC (stereo not shown) [ST051557, cyclopentyl 2-methyl-5-oxo-7-(2-thienyl)-4-(2,4,5-trimethoxyphenyl)-1,4,6,7,8-pentahydroquinoline-3-carboxylate] | – | – | 93.1 | 57.3 |
| CC1=C(C(=O)OCCc2ccccc2)C(c2cc3c(cc2Br)OCO3)C2=C(CC(C)(C)CC2=O)N1 (stereo not shown) [ST014885, 2-phenylethyl 4-(6-bromo(2H-benzo[d]1,3-dioxolen-5-yl))-2,7,7-trimethyl-5-oxo-1,4,6,7,8-pentahydroquinoline-3-carboxylate] | – | – | 87.5 | 39.5 |
| CCOCCOC(=O)C1=C(C)NC2=C(C(=O)CC(c3ccccc3)C2)C1c1ccc(Br)cc1 (stereo not shown) [ST017313, 2-ethoxyethyl 4-(4-bromophenyl)-2-methyl-5-oxo-7-phenyl-1,4,6,7,8-pentahydroquinoline-3-carboxylate] | – | – | 85.4 | 44.2 |
| COc1ccccc1NC(=O)CSC1=C(C#N)C(c2ccsc2)C(C(=O)Nc2ccccc2)=C(C)N1 (stereo not shown) [RI_57] | 37.3 % of control | 49.1 % of control | – | – |
| COC(=O)C1=C(N)n2c(s/c(=C/c3ccc(Cl)cc3Cl)c2=O)=C(C(=O)OC)C1c1ccc(Cl)cc1Cl (stereo not shown) [ST011769, methyl 5-amino-7-(2,4-dichlorophenyl)-2-[(2,4-dichlorophenyl)methylene]-6-(methoxycarbonyl)-3-oxo-4,7-dihydro-1,3-thiazolidino[3,2-a]pyridine-8-carboxylate] | 71.56 % of control | 42.3 % of control | – | – |
| CC1=C(C(=O)Nc2ccccc2)C(c2cccs2)C(C#N)=C(SCC(=O)Nc2cc(C)ccc2C)N1 (stereo not shown) [RI_93] | 58 % of control | 42.6 % of control | – | – |
| Cc1ccccc1N1C2=C(C(=O)CC(C)(C)C2)C(c2ccccc2)C2=C1c1ccccc1C2=O (stereo not shown) [ST024318, 3,3-dimethyl-5-(2-methylphenyl)-11-phenyl-2,3,4,5,11-pentahydroindeno[3,2-b]quinoline-1,10-dione] | – | – | 99.5 | 64.9 |
| COC(=O)CSC1=C(C#N)C(c2ccc(Cl)cc2)C(C(=O)OC(C)(C)C)=C(C)N1 (stereo not shown) [ST050862, methyl 2-{5-[(tert-butyl)oxycarbonyl]-4-(4-chlorophenyl)-3-cyano-6-methyl-2-1,4-dihydropyridylthio}acetate] | 56.21 % of control | 65.24 % of control | – | – |
| COc1ccc(OC)c(C2C(C#N)=C(C)NC3=C2C(=O)CC(c2ccccc2)C3)c1 (stereo not shown) [ST018638, 4-(2,5-dimethoxyphenyl)-2-methyl-5-oxo-7-phenyl-1,4,6,7,8-pentahydroquinoline-3-carbonitrile] | – | – | 53.8 | 45.4 |
| CC1=C(C(=O)OC2CCCCC2)C(c2ccc(Cl)c(Cl)c2)C2=C(CCCC2=O)N1 (stereo not shown) [ST013269, cyclohexyl 4-(3,4-dichlorophenyl)-2-methyl-5-oxo-1,4,6,7,8-pentahydroquinoline-3-carboxylate] | – | – | 1.35 | 12.3 |
| CC1=C(C(=O)Nc2ccc(Cl)cc2)C(c2ccccc2)C(C#N)=C(SCC(=O)Nc2ccc(C(C)C)cc2)N1 (stereo not shown) [RI_54] | 52.6 % of control | 45.89 % of control | – | – |
| COCCOC(=O)C1=C(C)NC2=C(C(=O)CC(c3ccc(Cl)cc3)C2)C1c1ccc([N+](=O)[O-])cc1 (stereo not shown) [ST016971, 2-methoxyethyl 7-(4-chlorophenyl)-2-methyl-4-(4-nitrophenyl)-5-oxo-1,4,6,7,8-pentahydroquinoline-3-carboxylate] | – | – | 86.2 | 27.3 |
| CCCOC(=O)C1=C(C)NC2=C(C(=O)CC(C)(C)C2)C1c1cccc(Cl)c1Cl (stereo not shown) [ST013206, propyl 4-(2,3-dichiorophenyl)-2,7,7-trimethyl-5-oxo-1,4,6,7,8-pentahydroquinoline-3-carboxylate] | – | – | 62.5 | 0 |
| CCOC(=O)C1=CN(c2ccc(F)cc2)C=C(C(=O)OCC)C1c1cccs1 [ST052327, ethyl 5-(ethoxycarbonyl)-1-(4-fluorophenyl)-4-(2-thienyl)-1,4-dihydropyridine-3-carboxylate] | 84.33 % of control | 57.74 % of control | – | – |
| CCCOc1ccccc1C1C(C(=O)OCC(C)C)=C(C)NC2=C1C(=O)CC(c1ccc(Cl)cc1)C2 (stereo not shown) [ST017026, 2-methylpropyl 7-(4-chlorophenyl)-2-methyl-5-oxo-4-(2-propoxyphenyl)-1,4,6,7,8-pentahydroquinoline-3-carboxylate] | – | – | 80.6 | 40.6 |
| COc1ccc(COC(=O)C2=C(C)NC3=C(C(=O)CCC3)C2c2cccc(F)c2)cc1 (stereo not shown) [ST016959, (4-methoxyphenyl)methyl 4-(3-fluorophenyl)-2-methyl-5-oxo-1,4,6,7,8-pentahydroquinoline-3-carboxylate] | – | – | 57.2 | 28.8 |
